This note sets out measurements from PMC10970734, “Identification of an Intravenous Injectable NK1 Receptor Antagonist for Use in Traumatic Brain Injury” (International Journal of Molecular Sciences, 2024).

Assay [1] concerns the target T1, recombinant human NK2 receptor (Homo sapiens, UniProt P21452).
T1 sequence (P21452 1-398): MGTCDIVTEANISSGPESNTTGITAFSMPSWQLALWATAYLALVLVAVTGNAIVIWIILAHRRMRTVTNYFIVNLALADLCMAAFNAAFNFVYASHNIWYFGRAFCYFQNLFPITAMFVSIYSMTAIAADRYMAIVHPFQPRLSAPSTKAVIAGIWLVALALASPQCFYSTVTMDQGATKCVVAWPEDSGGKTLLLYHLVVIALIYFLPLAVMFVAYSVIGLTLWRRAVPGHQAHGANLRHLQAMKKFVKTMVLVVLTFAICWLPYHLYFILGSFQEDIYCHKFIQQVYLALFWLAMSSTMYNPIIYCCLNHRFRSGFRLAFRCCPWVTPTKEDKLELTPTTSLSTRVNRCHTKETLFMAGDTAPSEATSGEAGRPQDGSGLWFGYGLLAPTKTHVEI
In words: Radioligand binding, recombinant human NK2 receptor.

Assay [2] addresses T2, recombinant human NK3 receptor (Homo sapiens, UniProt P29371).
T2 sequence (P29371 1-465): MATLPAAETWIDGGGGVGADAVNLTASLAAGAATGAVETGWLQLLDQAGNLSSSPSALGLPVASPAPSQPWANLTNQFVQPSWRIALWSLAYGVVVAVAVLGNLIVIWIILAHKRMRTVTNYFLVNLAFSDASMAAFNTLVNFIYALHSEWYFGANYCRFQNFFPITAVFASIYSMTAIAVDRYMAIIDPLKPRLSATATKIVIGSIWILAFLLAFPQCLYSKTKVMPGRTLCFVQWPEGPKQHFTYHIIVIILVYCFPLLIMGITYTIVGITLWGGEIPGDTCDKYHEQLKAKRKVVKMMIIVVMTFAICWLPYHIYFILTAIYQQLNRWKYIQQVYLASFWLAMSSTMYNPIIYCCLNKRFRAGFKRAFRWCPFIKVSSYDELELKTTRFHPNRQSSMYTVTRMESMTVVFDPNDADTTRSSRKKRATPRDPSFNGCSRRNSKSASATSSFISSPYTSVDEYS
In words: Radioligand binding, recombinant human NK3 receptor.

Assay [3] deals with rodent model of TBI. In words: Cognitive function after TBI, Barnes maze. Particulars: rat TBI, 10 mg/kg 30 min post-injury, 10 days. The class given is in vivo, Sprague Dawley rats. The method, then: Cognitive outcome was assessed using the Barnes maze in order to reduce the potential confounding effects that may be associated with tests such as the Morris water maze. In the Barnes maze, animals were placed under a cover in the centre of an elevated 1.2 m diameter board containing 19 holes around the periphery. One hole contained the entrance to a darkened escape tunnel that was not visible from the surface, relying on the animal to use surrounding visual cues to locate the tunnel. The time, in seconds, for the animal to locate and enter the escape tunnel was recorded. Following pre-training, the effect of injury, and post-injury treatment, on the time taken for the animal to locate the tunnel was measured (Figure 7). […]
Injury was induced in halothane-anesthetized (ProVet) male Sprague Dawley rats (400 ± 20 g) using acceleration-induced impact TBI [29, 93]. […] Blood pressure was monitored, both before and after injury, using a femoral arterial line. […]
Motor and cognitive outcomes in animals (n = 6 per group) were assessed using the rotarod and Barnes maze, respectively, as described in detail elsewhere. […] The rotational speed of the device was increased from 0 to 30 r.p.m. and the duration (in seconds) when the animals either completed the task, fell from the rods, or gripped the rods and spun for two consecutive revolutions rather than walking actively was recorded as the rotarod score. […]

In assay [4] the test system is rodent model of TBI. In words: Cerebral oedema after TBI, wet weight-dry weight method. The class given is in vivo, Sprague Dawley rats. The note with it: rat TBI, 10 mg/kg 30 min post-injury, tissues 6 h post-injury. The method, then: The BBB dysfunction that follows acute CNS injuries can contribute to significant complications, such as cerebral oedema and raised intracranial pressure (ICP). The development of cerebral oedema was assessed using the wet weight–dry weight method, with tissues collected 6 h post-injury.
Injury was induced in halothane-anesthetized (ProVet) male Sprague Dawley rats (400 ± 20 g) using acceleration-induced impact TBI [29, 93]. This model involves impacting a 10 mm diameter, 3 mm thick stainless steel disc fixed centrally to the exposed skull between the lambda and bregma with an accelerating impactor. The impactor was a 450 g brass weight dropped from a height of 2 m. Earlier studies have shown that the impact acceleration injury produces diffuse axonal injury, oedema, BBB opening, Mg^2+ decline, and moderate-to-severe neurologic deficits. All animals were fed and watered ad libitum before the induction of injury. During both surgery and the immediate recovery phase, rat rectal temperature was maintained using a thermostatically controlled heating pad. […] Blood pressure was monitored, both before and after injury, using a femoral arterial line. […]
The amount of oedema development was calculated using the wet weight–dry weight method. […] Edema in each brain sample was calculated using the wet–dry method formula:%Water = (Wet Weight − Dry Weight)/Wet Weight × 100

Consider `Cc1ccccc1-c1cc(N2CCN(C)CC2)ncc1C(=O)N(C)Cc1cc(C(F)(F)F)cc(C(F)(F)F)c1` [EUC-001, N-(3,5-Bis-trifluoromethyl-benzyl)-N-methyl-6-(4-methyl-piperazine-1-yl)-4-o-tolyl-nicotinamide], for which the results for the inhibition constant Ki in assay [1] and in assay [2] were 3.4 µM and 17 µM, respectively. For the same compound, the “Cognitive function, Barnes maze time to locate escape tunnel” value with rodent model of TBI [3] is on record as “minimal impact on the performance time”. In the assay on rodent model of TBI [4], the “Brain tissue water content (cerebral oedema)” value is given as “not significantly different from sham”.

What is called Ki is a dissociation constant, usually derived from enzyme kinetics or from competition with a known ligand.
